Reference: ChEMBL document CHEMBL4007445, “Design, synthesis, and biological evaluation of imidazo[1,2-b]pyridazine derivatives as mTOR inhibitors” (Eur J Med Chem, 2017)
pIC50: −log10 of the molar value. Active and inactive are the calls of the source. No cut-off for these calls is given here.

Assays:
A549 [1] = test: Cell cycle arrest in human A549 cells assessed as accumulation at G2 phase at 10 uM after 48 hrs by propidium iodide staining based flow cytometry (reference value: 14.49%); type: functional
[2] = molecular target: Phosphatidylinositol 4,5-bisphosphate 3-kinase catalytic subunit gamma isoform (Homo sapiens) (UniProt P48736); test: Inhibition of human PI3K p120gamma at 10 uM using phosphatidylinositol 4,5-bisphosphate as substrate after 30 mins by HTRF assay relative to control
A549 [3] = test: Induction of apoptosis in human A549 cells assessed as late apoptotic cells at 10 uM after 48 hrs by Annexin V-FITC/propidium iodide staining based flow cytometry (reference value: 6.3%); type: functional
[4] = molecular target: T1, Serine/threonine-protein kinase mTOR (Homo sapiens, UniProt P42345); test: Inhibition of human N-terminal FLAG-tagged mTOR (1362-end residues) in presence of [gamma33P]ATP after 40 mins
A549 [5] = test: Cell cycle arrest in human A549 cells assessed as accumulation at G1 phase at 10 uM after 48 hrs by propidium iodide staining based flow cytometry (reference value: 40.21%); type: functional
[6] = molecular target: PI3-kinase p110-alpha/p85-alpha (Homo sapiens) (UniProt P27986+P42336); test: Inhibition of human PI3K p110alpha/p85alpha at 10 uM using phosphatidylinositol 4,5-bisphosphate as substrate after 30 mins by HTRF assay relative to control; type: protein-complex assay
[7] = Antiproliferative activity against human U87 cells after 72 hrs by SRB assay; type: functional, cell-based, U-87MG ATCC; settings: U-87 MG
A549 [8] = test: Induction of apoptosis in human A549 cells assessed as necrotic cells at 10 uM after 48 hrs by Annexin V-FITC/propidium iodide staining based flow cytometry (reference value: 0.1%); type: functional
[9] = molecular target: PI3-kinase p110-delta/p85-alpha (Homo sapiens) (UniProt P27986+O00329); test: Inhibition of human PI3K p110delta/p85alpha at 10 uM using phosphatidylinositol 4,5-bisphosphate as substrate after 30 mins by HTRF assay relative to control; type: protein-complex assay
[10] = molecular target: T1, Serine/threonine-protein kinase mTOR; test: Inhibition of mTOR in human A549 cells assessed as reduction in p70S6K phosphorylation at T389 residue after 2 hrs by HTRF method; type: cell-based
[11] = molecular target: PI3K p110 beta/p85 alpha (Homo sapiens) (UniProt P27986+P42338); test: Inhibition of human PI3K p110beta/p85alpha at 10 uM using phosphatidylinositol 4,5-bisphosphate as substrate after 30 mins by HTRF assay relative to control; type: protein-complex assay
A549 [12] = test: Induction of apoptosis in human A549 cells assessed as early apoptotic cells at 10 uM after 48 hrs by Annexin V-FITC/propidium iodide staining based flow cytometry (reference value: 3.6%); type: functional
[13] = molecular target: PI3-kinase p110-alpha/p85-alpha (Homo sapiens, UniProt P42336); test: Inhibition of human PI3K p110alpha/p85alpha using phosphatidylinositol 4,5-bisphosphate as substrate after 30 mins by HTRF assay; type: protein-complex assay
A549 [14] = test: Inhibition of mTORC2 in human A549 cells assessed as reduction in Akt phosphorylation at Ser-473 residue at 5 uM up to 2 hrs by Western blot method; type: cell-based
A549 [15] = test: Inhibition of mTORC1 in human A549 cells assessed as reduction in S6 phosphorylation at […] residues at 5 uM up to 2 hrs by Western blot method; type: cell-based
HEK293 = test: Antiproliferative activity against HEK293 cells after 72 hrs by SRB assay; type: cell-based; settings: Homo sapiens, HEK293, 72 h
MCF7 = test: Antiproliferative activity against human MCF7 cells after 72 hrs by SRB assay; type: functional, cell-based; settings: MCF7, 72 h
A549 [16] = test: Cell cycle arrest in human A549 cells assessed as accumulation at S phase at 10 uM after 48 hrs by propidium iodide staining based flow cytometry (reference value: 45.31%); type: functional
A-375 = test: Antiproliferative activity against human A375 cells after 72 hrs by SRB assay; type: functional, cell-based; settings: A-375, 72 h
A549 [17] = test: Antiproliferative activity against human A549 cells after 72 hrs by SRB assay; type: functional, cell-based; settings: A549, 72 h
NCI-H460 = test: Antiproliferative activity against human NCI-H460 cells after 72 hrs by SRB assay; type: functional, cell-based; settings: NCI-H460, 72 h
A549 [18] = test: Induction of apoptosis in human A549 cells assessed as live cells at 10 uM after 48 hrs by Annexin V-FITC/propidium iodide staining based flow cytometry (reference value: 90%); type: functional
Mus musculus [19] = test: Toxicity in Balb/c nude mouse xenografted with human A549 cells assessed as changes in body weight at 5 to 30 mg/kg, iv administered 7 times on day 14, 16, 18, 21, 23, 25, 28 post tumor implantation; type: organism-based; settings: in vivo
A549 [20] = test: Antitumor activity against human A549 cells xenografted in Balb/c nude mouse assessed sa tumor growth inhibition at 30 mg/kg, iv administered 7 times on day 14, 16, 18, 21, 23, 25, 28 post tumor implantation measured after 1 week relative to control; type: functional; settings: read-out: TGI
Mus musculus [21] = test: Toxicity in Balb/c nude mouse xenografted with human A549 cells assessed as mortality at 5 to 30 mg/kg, iv administered 7 times on day 14, 16, 18, 21, 23, 25, 28 post tumor implantation; type: organism-based; settings: in vivo

Chain of PI3K p110 beta/p85 alpha (Homo sapiens) (P27986 2-724 limits assumed): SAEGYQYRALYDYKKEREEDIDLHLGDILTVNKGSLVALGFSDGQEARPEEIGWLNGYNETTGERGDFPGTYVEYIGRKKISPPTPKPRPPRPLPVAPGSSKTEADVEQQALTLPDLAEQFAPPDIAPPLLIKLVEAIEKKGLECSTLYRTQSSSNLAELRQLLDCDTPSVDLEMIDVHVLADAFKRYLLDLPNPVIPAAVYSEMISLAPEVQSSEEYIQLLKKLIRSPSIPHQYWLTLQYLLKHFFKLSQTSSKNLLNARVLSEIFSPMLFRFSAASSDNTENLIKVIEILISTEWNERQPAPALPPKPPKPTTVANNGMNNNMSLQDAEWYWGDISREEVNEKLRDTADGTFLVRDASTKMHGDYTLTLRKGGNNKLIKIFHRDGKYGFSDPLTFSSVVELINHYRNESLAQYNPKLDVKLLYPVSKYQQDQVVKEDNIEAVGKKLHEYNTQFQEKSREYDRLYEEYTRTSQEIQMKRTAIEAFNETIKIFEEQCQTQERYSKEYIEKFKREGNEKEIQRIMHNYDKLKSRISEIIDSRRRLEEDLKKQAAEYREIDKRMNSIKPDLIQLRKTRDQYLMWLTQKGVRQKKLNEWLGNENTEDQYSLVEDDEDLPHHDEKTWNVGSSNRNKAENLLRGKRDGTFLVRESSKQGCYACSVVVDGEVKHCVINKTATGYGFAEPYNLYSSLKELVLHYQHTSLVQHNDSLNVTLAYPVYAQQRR
Chain of PI3K p110 beta/p85 alpha (Homo sapiens) (P42338 whole entry partner): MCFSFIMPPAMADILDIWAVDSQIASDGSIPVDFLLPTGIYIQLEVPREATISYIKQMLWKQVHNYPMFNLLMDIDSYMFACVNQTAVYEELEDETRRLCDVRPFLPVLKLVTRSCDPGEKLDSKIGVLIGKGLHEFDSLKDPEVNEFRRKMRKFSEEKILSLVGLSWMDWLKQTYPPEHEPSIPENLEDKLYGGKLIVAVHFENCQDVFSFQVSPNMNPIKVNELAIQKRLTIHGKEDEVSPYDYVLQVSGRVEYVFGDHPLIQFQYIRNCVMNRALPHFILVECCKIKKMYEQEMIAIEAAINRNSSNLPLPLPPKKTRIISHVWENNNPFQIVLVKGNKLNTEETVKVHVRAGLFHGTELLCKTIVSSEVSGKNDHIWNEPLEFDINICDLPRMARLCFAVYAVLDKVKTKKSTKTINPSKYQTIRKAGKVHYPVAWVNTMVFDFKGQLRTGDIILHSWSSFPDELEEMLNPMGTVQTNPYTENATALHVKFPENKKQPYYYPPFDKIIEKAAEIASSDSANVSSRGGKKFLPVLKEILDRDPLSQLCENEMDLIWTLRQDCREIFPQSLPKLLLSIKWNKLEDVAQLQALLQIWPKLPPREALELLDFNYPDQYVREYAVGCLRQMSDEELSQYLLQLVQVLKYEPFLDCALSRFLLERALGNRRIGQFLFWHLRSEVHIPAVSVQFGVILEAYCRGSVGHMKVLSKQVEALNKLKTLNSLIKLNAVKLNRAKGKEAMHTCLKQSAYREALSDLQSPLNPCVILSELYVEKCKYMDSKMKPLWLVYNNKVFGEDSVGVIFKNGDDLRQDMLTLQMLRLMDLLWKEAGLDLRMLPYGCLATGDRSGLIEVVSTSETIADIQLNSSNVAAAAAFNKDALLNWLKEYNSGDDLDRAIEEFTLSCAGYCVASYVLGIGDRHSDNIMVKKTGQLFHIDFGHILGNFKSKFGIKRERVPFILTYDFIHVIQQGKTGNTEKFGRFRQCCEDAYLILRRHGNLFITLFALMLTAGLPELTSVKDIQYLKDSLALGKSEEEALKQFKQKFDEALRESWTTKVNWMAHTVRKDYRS
Chain of Phosphatidylinositol 4,5-bisphosphate 3-kinase catalytic subunit gamma isoform (Homo sapiens) (P48736 whole entry, looked up, canonical isoform): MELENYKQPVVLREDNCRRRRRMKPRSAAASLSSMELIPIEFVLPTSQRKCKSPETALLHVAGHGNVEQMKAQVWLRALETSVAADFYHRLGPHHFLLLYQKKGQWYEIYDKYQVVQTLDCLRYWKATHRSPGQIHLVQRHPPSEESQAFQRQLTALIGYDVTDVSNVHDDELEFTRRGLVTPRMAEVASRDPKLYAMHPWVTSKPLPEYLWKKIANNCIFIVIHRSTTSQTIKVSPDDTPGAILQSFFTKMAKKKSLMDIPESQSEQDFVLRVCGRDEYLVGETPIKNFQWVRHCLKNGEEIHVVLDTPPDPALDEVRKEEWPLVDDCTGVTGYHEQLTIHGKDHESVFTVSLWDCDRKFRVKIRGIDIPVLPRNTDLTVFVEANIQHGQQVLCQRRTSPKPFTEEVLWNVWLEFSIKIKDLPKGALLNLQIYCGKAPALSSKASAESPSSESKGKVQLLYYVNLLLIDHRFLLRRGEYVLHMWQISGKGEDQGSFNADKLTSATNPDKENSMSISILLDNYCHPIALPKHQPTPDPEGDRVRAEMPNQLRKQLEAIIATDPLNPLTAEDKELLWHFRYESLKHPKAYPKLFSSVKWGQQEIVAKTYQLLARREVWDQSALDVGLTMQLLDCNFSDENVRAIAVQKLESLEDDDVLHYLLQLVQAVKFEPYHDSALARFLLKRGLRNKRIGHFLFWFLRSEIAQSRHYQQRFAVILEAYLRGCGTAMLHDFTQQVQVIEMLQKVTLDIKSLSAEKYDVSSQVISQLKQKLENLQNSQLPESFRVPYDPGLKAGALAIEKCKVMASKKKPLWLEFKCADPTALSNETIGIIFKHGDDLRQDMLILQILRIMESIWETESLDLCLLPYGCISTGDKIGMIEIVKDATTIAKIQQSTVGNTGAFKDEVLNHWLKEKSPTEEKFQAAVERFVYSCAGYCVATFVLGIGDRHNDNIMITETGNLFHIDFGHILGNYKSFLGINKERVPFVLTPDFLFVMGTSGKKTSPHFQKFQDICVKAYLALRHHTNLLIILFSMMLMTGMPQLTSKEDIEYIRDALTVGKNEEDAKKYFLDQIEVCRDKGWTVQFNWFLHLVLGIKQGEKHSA
Chain of PI3-kinase p110-alpha/p85-alpha (P27986 whole entry): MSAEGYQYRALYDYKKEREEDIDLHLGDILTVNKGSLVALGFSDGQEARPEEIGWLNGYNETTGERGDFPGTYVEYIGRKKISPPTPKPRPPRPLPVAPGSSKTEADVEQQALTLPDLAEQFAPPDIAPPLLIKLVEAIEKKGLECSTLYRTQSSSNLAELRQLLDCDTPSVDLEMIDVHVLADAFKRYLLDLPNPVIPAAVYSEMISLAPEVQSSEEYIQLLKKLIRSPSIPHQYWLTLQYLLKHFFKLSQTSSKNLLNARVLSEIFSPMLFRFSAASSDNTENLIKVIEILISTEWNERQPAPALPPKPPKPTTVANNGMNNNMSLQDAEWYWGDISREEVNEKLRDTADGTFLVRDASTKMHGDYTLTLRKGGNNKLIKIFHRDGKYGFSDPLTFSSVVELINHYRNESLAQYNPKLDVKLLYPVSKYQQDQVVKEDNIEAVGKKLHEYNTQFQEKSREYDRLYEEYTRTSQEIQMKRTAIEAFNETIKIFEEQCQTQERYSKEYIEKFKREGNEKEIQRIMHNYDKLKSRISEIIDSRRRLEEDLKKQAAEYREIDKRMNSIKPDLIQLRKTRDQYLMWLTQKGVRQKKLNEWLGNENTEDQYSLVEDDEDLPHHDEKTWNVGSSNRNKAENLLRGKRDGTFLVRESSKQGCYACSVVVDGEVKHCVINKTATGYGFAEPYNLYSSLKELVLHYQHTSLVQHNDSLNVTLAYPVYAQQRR
Chain of PI3-kinase p110-alpha/p85-alpha (P42336 whole entry): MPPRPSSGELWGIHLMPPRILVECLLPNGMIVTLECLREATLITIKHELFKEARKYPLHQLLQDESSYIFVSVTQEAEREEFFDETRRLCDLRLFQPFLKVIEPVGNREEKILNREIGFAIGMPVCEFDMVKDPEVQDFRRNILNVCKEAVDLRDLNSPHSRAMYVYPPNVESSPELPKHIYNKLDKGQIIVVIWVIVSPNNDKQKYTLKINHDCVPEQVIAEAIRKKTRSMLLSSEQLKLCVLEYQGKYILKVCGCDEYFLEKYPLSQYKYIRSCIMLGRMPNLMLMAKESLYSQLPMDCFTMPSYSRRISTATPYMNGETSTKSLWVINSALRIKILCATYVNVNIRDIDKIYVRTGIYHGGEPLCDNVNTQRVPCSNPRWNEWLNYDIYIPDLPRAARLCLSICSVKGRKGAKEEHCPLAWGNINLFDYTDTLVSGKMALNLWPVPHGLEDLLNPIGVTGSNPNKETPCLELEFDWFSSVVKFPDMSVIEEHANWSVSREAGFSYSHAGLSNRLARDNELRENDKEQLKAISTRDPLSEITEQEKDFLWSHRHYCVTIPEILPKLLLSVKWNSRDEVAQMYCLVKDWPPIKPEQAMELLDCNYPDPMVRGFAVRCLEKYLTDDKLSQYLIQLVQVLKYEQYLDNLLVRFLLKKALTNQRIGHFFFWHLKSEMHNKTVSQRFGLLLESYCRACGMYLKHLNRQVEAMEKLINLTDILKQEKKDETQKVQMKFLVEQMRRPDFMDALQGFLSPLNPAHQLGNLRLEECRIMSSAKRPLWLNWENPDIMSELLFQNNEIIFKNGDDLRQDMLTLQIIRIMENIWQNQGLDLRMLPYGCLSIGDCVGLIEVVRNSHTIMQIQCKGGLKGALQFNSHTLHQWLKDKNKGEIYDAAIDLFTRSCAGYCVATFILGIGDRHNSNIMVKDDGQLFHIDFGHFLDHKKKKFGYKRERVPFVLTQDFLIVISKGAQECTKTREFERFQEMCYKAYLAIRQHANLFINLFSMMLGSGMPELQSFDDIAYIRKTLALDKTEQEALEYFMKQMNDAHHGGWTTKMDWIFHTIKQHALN

Compound: C[C@H]1COCCN1c1cc(-c2ccc(NC(=O)Nc3ccncc3)cc2)nn2ccnc12
- Activity (A549 [1]): 13.86%
- inhibition [2]: 39%
- Activity (A549 [3]): 6.3%
- pIC50 [4]: 7.21
- Activity (A549 [5]): 50.95%
- inhibition [6]: 64%
- pIC50 [7]: 5.13
- Activity (A549 [8]): 0%
- inhibition [9]: 29%
- inhibition [10]: Dose-dependent effect
- inhibition [11]: 33%
- Activity (A549 [12]): 3.7%
- pIC50 [13]: 5.51
- inhibition (A549 [14]): Active
- inhibition (A549 [15]): Active
- pIC50 (HEK293): 5.28
- pIC50 (MCF7): 4.88
- Activity (A549 [16]): 35.19%
- pIC50 (A-375): 5.24
- pIC50 (A549 [17]): 7.70
- pIC50 (NCI-H460): 6.17
- Activity (A549 [18]): 89.9%

Compound: C[C@H]1COCCN1c1cc(-c2ccc(NC(=O)Nc3cccnc3)cc2)nn2ccnc12
- Activity (A549 [1]): 7.61%
- inhibition [2]: 40%
- Activity (A549 [3]): 8.8%
- Activity (Mus musculus [19]): Non-Toxic
- pIC50 [4]: 7.17
- Activity (A549 [5]): 55.32%
- inhibition [6]: 59%
- pIC50 [7]: 4.87
- Activity (A549 [8]): 0%
- inhibition [9]: 19%
- inhibition [10]: Dose-dependent effect
- inhibition [11]: 24%
- Activity (A549 [12]): 3.5%
- pIC50 [13]: 5.35
- inhibition (A549 [14]): Active
- inhibition (A549 [15]): Active
- inhibition in vivo at 30 mg/kg (A549 [20]): 37.8%
- pIC50 (HEK293): 5.05
- Activity (Mus musculus [21]): Non-Toxic
- pIC50 (MCF7): 4.40
- Activity (A549 [16]): 33.07%
- pIC50 (A-375): 4.95
- pIC50 (A549 [17]): 7.30
- pIC50 (NCI-H460): 6.33
- Activity (A549 [18]): 87.8%
